Active and inactive are the calls of the source. The calls are words filed in the database; no cut-off is given here.
Legend:
HCT-116 [1] = assay: Growth inhibition of human HCT-116 cells incubated for 48 hrs by MTT reagent based ELISA reader analysis; assay type: functional, cell-based; conditions: HCT-116, 48 h
HepG2 = assay: Growth inhibition of human HepG2 cells incubated for 48 hrs by MTT reagent based ELISA reader analysis; assay type: functional, cell-based; conditions: HepG2, 48 h
MCF7 = assay: Growth inhibition of human MCF7 cells incubated for 48 hrs by MTT reagent based ELISA reader analysis; assay type: functional, cell-based; conditions: MCF7, 48 h
A549 = assay: Growth inhibition of human A549 cells incubated for 48 hrs by MTT reagent based ELISA reader analysis; assay type: functional, cell-based; conditions: A549, 48 h
HeLa = assay: Growth inhibition of human HeLa cells incubated for 48 hrs by MTT reagent based ELISA reader analysis; assay type: functional, cell-based
PDX27454 [2] = assay: Antitumor activity against human PDX27454 cells xenografted in SCID mouse model assessed as reduction in tumor volume at 2 mg/kg,po administrated once per week for 3 weeks; assay type: functional, organism-based
PDX27454 [3] = assay: Antitumor activity against human PDX27454 cells xenografted in SCID mouse model assessed as reduction in tumor volume at 8 mg/kg,po administrated once per week for 3 weeks; assay type: functional, organism-based
PDX14244 [4] = assay: Antitumor activity against human PDX14244 cells xenografted in SCID mouse model assessed as reduction in tumor volume at 2 mg/kg,po administrated once per week for 3 weeks; assay type: functional, organism-based
PDX14244 [5] = assay: Antitumor activity against human PDX14244 cells xenografted in SCID mouse model assessed as reduction in tumor volume at 8 mg/kg,po administrated once per week for 3 weeks; assay type: functional, organism-based
HCT-116 [6] = assay: Induction of apoptosis in human HCT-116 cells assessed as increase in intracellular ROS level incubated for 48 hrs by DCFH-DA staining based fluorescence microscopy; assay type: functional, cell-based
HCT-116 [7] = assay: Induction of apoptosis in human HCT-116 cells assessed as increase in intracellular ROS level at 10 to 1000 nM incubated for 12 hrs by DCFH-DA staining based fluorescence microscopy; assay type: functional, cell-based; conditions: dose 10-1000 nM
HCT-116 [8] = assay: Induction of apoptosis in human HCT-116 cells assessed as increase in intracellular ROS level at 10 to 1000 nM incubated for 4 to 8 hrs by DCFH-DA staining based fluorescence microscopy; assay type: functional, cell-based; conditions: dose 10-1000 nM, time 4-8 hrs
HCT-116 [9] = assay: Inhibition of cell migration in human HCT-116 cells assessed as intercellular distance at 5 nM by inverted phase-contrast microscopic analysis (reference value: 2.5 +/- 0.7 millimeter); assay type: functional
HCT-116 [10] = assay: Inhibition of cell migration in human HCT-116 cells assessed as intercellular distance at 5 nM incubated for 24 hrs by inverted phase-contrast microscopic analysis (reference value: 1 +/- 0.2 millimeter); assay type: functional
HCT-116 [11] = assay: Inhibition of cell migration in human HCT-116 cells assessed as intercellular distance at 5 nM incubated for 48 hrs by inverted phase-contrast microscopic analysis; assay type: functional
HCT-116 [12] = assay: Inhibition of cell migration in human HCT-116 cells assessed as scratch repair rate at 5 nM incubated for 48 hrs by inverted phase-contrast microscopic analysis; assay type: functional; design: scale not given: the % may be the effect or the level left
[13] = target: T1, DNA topoisomerase 1 (Homo sapiens) (UniProt P11387); assay: Inhibition of topoisomerase 1 (unknown origin) assessed as relaxation of supercoiled plasmid pBR322 DNA at 25 to 100 uM incubated for 30 mins by ethidium bromide staining based agarose gel electrophoresis; conditions: dose 25-100 µM
T1 sequence (whole entry): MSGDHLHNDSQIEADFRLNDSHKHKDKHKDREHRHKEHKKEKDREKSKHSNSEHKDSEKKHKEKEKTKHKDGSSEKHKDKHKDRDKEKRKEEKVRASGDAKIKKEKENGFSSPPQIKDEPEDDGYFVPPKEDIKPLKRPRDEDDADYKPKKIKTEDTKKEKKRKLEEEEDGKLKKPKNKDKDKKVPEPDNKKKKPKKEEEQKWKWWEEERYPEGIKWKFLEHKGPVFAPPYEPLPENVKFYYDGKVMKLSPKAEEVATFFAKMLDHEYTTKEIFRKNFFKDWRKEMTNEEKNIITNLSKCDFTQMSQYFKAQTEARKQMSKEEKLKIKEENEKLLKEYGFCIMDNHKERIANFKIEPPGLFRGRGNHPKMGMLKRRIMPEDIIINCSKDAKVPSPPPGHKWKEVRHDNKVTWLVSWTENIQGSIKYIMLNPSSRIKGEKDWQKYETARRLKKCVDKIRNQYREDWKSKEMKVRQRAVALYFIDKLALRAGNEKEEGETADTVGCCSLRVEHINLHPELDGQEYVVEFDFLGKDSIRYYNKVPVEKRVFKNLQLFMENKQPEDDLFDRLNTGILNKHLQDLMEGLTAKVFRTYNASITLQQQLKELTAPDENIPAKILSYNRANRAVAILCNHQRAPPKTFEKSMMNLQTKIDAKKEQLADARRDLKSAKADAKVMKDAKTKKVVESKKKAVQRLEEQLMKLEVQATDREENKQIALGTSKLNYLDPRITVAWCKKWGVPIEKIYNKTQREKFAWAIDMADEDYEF

HCT-116 [14] = assay: Induction of cell cycle arrest in human HCT-116 cells assessed as accumulation of cells at S phase at 2.5 to 10 nM incubated for 48 hrs by Annexin V-FITC/PI staining based flow cytometry assay; assay type: functional; conditions: dose 2.5-10 nM
HCT-116 [15] = assay: Induction of cell cycle arrest in human HCT-116 cells assessed as accumulation of cells at G2/M phase at 2.5 to 10 nM incubated for 48 hrs by Annexin V-FITC/PI staining based flow cytometry assay; assay type: functional; conditions: dose 2.5-10 nM
HCT-116 [16] = assay: Induction of apoptosis in human HCT-116 cells at 2.5 to 10 nM incubated for 48 hrs by Annexin V-FITC/PI staining based flow cytometry assay; assay type: functional, cell-based; conditions: dose 2.5-10 nM
HCT-116 [17] = assay: Induction of apoptosis in human HCT-116 cells assessed as downregulation of Survivin protein expression incubated for 48 hrs by Western blotting analysis; assay type: functional, cell-based
HCT-116 [18] = assay: Induction of apoptosis in human HCT-116 cells assessed as downregulation of XIAP protein expression incubated for 48 hrs by Western blotting analysis; assay type: functional, cell-based
HCT-116 [19] = assay: Induction of apoptosis in human HCT-116 cells assessed as downregulation of MCL-1 protein expression incubated for 48 hrs by Western blotting analysis; assay type: functional, cell-based

**Q.** Which IC50 (HCT-116 [1]) does the source give for CC[C@@]1(O)C(=O)OCc2c1cc1n(c2=O)Cc2cc3c(-c4cccc(C)c4)c4c(cc3nc2-1)OCO4 here?
**A.** Its IC50 is 478 nM.

**Q.** What about the IC50 (HepG2) of the same compound?
**A.** The IC50 was 200 nM.

**Q.** And the IC50 (MCF7)?
**A.** Its IC50 is 132 nM.

**Q.** What about the IC50 (A549) of the same compound?
**A.** The IC50 was > 1000 nM.

**Q.** And the IC50 (HeLa)?
**A.** The IC50 was 32.6 nM.

**Q.** What about the Activity (PDX27454 [2]) of the same compound?
**A.** Its Activity is “Active”.

**Q.** What about the Activity (PDX27454 [3]) of the same compound?
**A.** Its Activity is “Active”.

**Q.** What about the Activity (PDX14244 [4]) of the same compound?
**A.** Its Activity is “Active”.

**Q.** What about the Activity (PDX14244 [5]) of the same compound?
**A.** The Activity was “Active”.

**Q.** CC[C@@]1(O)C(=O)OCc2c1cc1n(c2=O)Cc2cc3c(-c4ccc([Si](C)(C)C)cc4)c4c(cc3nc2-1)OCO4 was tested. Which Activity (HCT-116 [6]) did it give?
**A.** Its Activity is “Dose-Dependent Effect”.

**Q.** And the IC50 (HCT-116 [1])?
**A.** Its IC50 is 253 nM.

**Q.** What about the IC50 (HepG2) of the same compound?
**A.** The IC50 was 176 nM.

**Q.** What about the IC50 (MCF7) of the same compound?
**A.** Its IC50 is 104 nM.

**Q.** What about the IC50 (A549) of the same compound?
**A.** Its IC50 is 85.8 nM.

**Q.** And the IC50 (HeLa)?
**A.** Its IC50 is 160 nM.

**Q.** What about the Activity (PDX27454 [2]) of the same compound?
**A.** The Activity was “Active”.

**Q.** What about the Activity (PDX27454 [3]) of the same compound?
**A.** The Activity was “Active”.

**Q.** What about the Activity (PDX14244 [4]) of the same compound?
**A.** The Activity was “Active”.

**Q.** What about the Activity (PDX14244 [5]) of the same compound?
**A.** Its Activity is “Active”.

**Q.** CC[C@@]1(O)C(=O)OCc2c1cc1n(c2=O)Cc2cc3c(-c4ccc(OC(C)C)cc4)c4c(cc3nc2-1)OCO4 was tested. Which Activity (HCT-116 [6]) did it give?
**A.** Its Activity is “Dose-Dependent Effect”.

**Q.** And the IC50 (HCT-116 [1])?
**A.** The IC50 was 948 nM.

**Q.** And the IC50 (HepG2)?
**A.** The IC50 was 910 nM.

**Q.** What about the IC50 (MCF7) of the same compound?
**A.** The IC50 was 600 nM.

**Q.** And the IC50 (A549)?
**A.** The IC50 was 142 nM.

**Q.** What about the IC50 (HeLa) of the same compound?
**A.** Its IC50 is 152 nM.

**Q.** And the Activity (PDX27454 [2])?
**A.** The Activity was “Active”.

**Q.** And the Activity (PDX27454 [3])?
**A.** Its Activity is “Active”.

**Q.** What about the Activity (PDX14244 [4]) of the same compound?
**A.** The Activity was “Active”.

**Q.** What about the Activity (PDX14244 [5]) of the same compound?
**A.** Its Activity is “Active”.

**Q.** For CC[C@@]1(O)C(=O)OCc2c1cc1n(c2=O)Cc2c-1nc1cc3c(cc1c2-c1ccc(C(F)(F)F)cc1)OCO3, which Activity (HCT-116 [6]) is on record?
**A.** The Activity was “Dose-Dependent Effect”.

**Q.** And the Activity (HCT-116 [7])?
**A.** The Activity was “Active”.

**Q.** What about the Activity (HCT-116 [8]) of the same compound?
**A.** Its Activity is “Active”.

**Q.** What about the IC50 (HCT-116 [1]) of the same compound?
**A.** The IC50 was 40.8 nM.

**Q.** And the IC50 (HepG2)?
**A.** The IC50 was 86.6 nM.

**Q.** And the IC50 (MCF7)?
**A.** Its IC50 is 47.1 nM.

**Q.** And the IC50 (A549)?
**A.** The IC50 was 78.9 nM.

**Q.** And the IC50 (HeLa)?
**A.** The IC50 was 49.5 nM.

**Q.** What about the Activity (HCT-116 [9]) of the same compound?
**A.** Its Activity is 2.6 mm.

**Q.** And the Activity (HCT-116 [10])?
**A.** Its Activity is 1.5 mm.

**Q.** And the Activity (HCT-116 [11])?
**A.** Its Activity is 0.8 mm.

**Q.** And the Activity (HCT-116 [12])?
**A.** Its Activity is 69.2%.

**Q.** What about the Activity (PDX27454 [2]) of the same compound?
**A.** The Activity was “Active”.

**Q.** What about the Activity (PDX27454 [3]) of the same compound?
**A.** Its Activity is “Active”.

**Q.** What about the Activity (PDX14244 [4]) of the same compound?
**A.** The Activity was “Active”.

**Q.** And the Activity (PDX14244 [5])?
**A.** The Activity was “Active”.

**Q.** What about the “Topoisomerase 1 inhibition” value [13] of the same compound?
**A.** The value was “Active”.

**Q.** What about the Activity (HCT-116 [14]) of the same compound?
**A.** Its Activity is “Active”.

**Q.** What about the Activity (HCT-116 [15]) of the same compound?
**A.** The Activity was “Active”.

**Q.** What about the Activity (HCT-116 [16]) of the same compound?
**A.** Its Activity is “Active”.

**Q.** What about the Activity (HCT-116 [17]) of the same compound?
**A.** The Activity was “Active”.

**Q.** What about the Activity (HCT-116 [18]) of the same compound?
**A.** The Activity was “Active”.

**Q.** And the Activity (HCT-116 [19])?
**A.** Its Activity is “Active”.
